Experimental data as given in PMC6080781, “ATP competes with PIP2 for binding to gelsolin” (PLoS ONE, 2018).
Where two headings read alike, the source gives them in different places.

Experiments:
gelsolin [1] = settings: equilibrium dialysis, high NaCl concentrations, cited from earlier work
gelsolin [2] = molecular target: T1, gelsolin (Homo sapiens, UniProt P06396); test: Steady-state fluorescence anisotropy of ATP-N binding to gelsolin
T1 construct: His tag (cleaved yes); made in house; host or cells: E. coli Rosetta2 (DE3) pLysS, pSY5 plasmid
Description: (§1) His-tagged human wild-type gelsolin was expressed in E. coli strain Rosetta2 (DE3) pLysS cells from a pSY5 plasmid. […] Traces of calcium were removed by dialysis (2 mM Tris-HCl, 1 mM EGTA, pH 7.4, overnight). Rabbit skeletal muscle actin was prepared from acetone powder (Pel-Freez Biologicals) in a protocol modified from Spudich and Watt. Actin was stored in buffer A (2 mM Tris-HCl, 0.2 mM ATP (ATP disodium trihydrate, Sigma-Aldrich), 0.1 mM CaCl2 (pCa 4), 0.1 mM DTT and 0.005% NaN3, pH 7.4). Alexa Fluor^TM 488 C5 Maleimide (Life Technologies) was used to label cysteine residues of gelsolin based on the manufacturer’s recommendations (Thermo Fisher Scientific).
(§2) We used a fluorescent derivative of PIP2 (PtdIns-(4,5)-P2-fluorescein, Cayman Chemicals, NU-10010388, λex = 493 nm, λem = 520 nm, abbreviated as PIP2-F) and a fluorescent derivative of ATP (N^6-(6-amino)hexyl-ATP-ATTO-532, Jena Bioscience, NU-805-532, λex = 532 nm, λem = 553 nm, abbreviated as ATP-N) as probes for the binding of PIP2 and ATP to gelsolin. Fluorescence intensities were measured on a Safire^2 monochromator microplate reader (TECAN) at 22°C. Steady-state fluorescence anisotropy values were determined according to Eq 1 [65], where IVV and IVH, respectively, are the intensities of vertically and horizontally polarized emission on excitation with vertically polarized light, with the correction factor, G, being the ratio of IVH/IVV.
(§3) The dissociation constants for ATP and PIP2 were calculated using a hyperbolic model from anisotropy data that had reached saturation during the gelsolin titrations Eq 2: r=rf+(rb−rf)(Kd+[G]+[L]−(Kd+[G]+[L])^2−4[G][L]/2[L]) (2) where rf is the anisotropy of free ligand, rb is the anisotropy of gelsolin-bound ligand, [L] is the total concentration of ligand, Kd is the dissociation constant and [G] is the total concentration of gelsolin. The anisotropy of 0.5 μM ATP-N was measured in the presence of gelsolin concentrations: 0, 0.2, 1.5, 2, 3, 5 and 8 μM. Saturation was evident at 5 μM characterized by an anisotropy value of 0.15 ± 0.006. The calcium and magnesium sensitivities of ATP binding to gelsolin were characterized by the change in anisotropy of solutions containing 0.5 μM ATP-N in the presence of 5 μM of gelsolin over a range of divalent cation concentrations of pCa 2–12 or pMg 1–12, where pCa and pMg refer to[…]. […] Anisotropy of 0.5 μM or 0.25 μM solutions of PIP2-F in the presence of 5 μM gelsolin was used to probe the changes in binding of the complexes under different calcium, magnesium, salt and ATP conditions.

[3] = Fluorescence emission of ATP-N with cations in the absence of gelsolin (precipitation); type: physicochemical
Description: Supplementary file pone.0201826.s005.pdf: S5 Fig Assessment of the effects of calcium and ATP on the binding of ATP-N and PIP2-F to gelsolin. (A) Kds were calculated from the fit data with Eq 2 of gelsolin:PIP2-F binding under different calcium concentrations in the absence or presence of ATP. In the absence of ATP, PIP2-F (0.5 μM) binds to gelsolin, as reflected by thehigh affinity, across a wide range of calcium concentrations. […] (B) In the absence of gelsolin, calcium directly precipitates ATP-N (C, open triangles) with a half-maximum value of 70.4 ± 0.7 μM. Magnesium has no effect on the fluorescence emission of ATP-N either in the absence (M, orange circles) or presence of 10 μM calcium (MC, purple squares). Data were fitted with simple sigmoidal curves. (C) The reported FURA-2FF dissociation constant for calcium ions is 25 μM (A.G. Scientific Inc.). The calcium-dependent fluorescence emission profile of FURA-2FF (2 μM) over pCa range of 5–7 was similar in the presence and absence of 20 μM PIP2, which were fitted with simple sigmoidal curves. […] The measurement was carried out with a Perkin Elmer LS-55 spectrofluorimeter (λex = 340 nm, λem = 505 nm). (PDF) Click here for additional data file.

gelsolin [4] = molecular target: T1, gelsolin; test: Steady-state fluorescence anisotropy of PIP2-F binding to gelsolin
Description: as §1, §2
as §3, with “Saturation was evident at 5 μM characterized by an anisotropy value of 0.15 ± 0.006.” left out

[5] = design: method as in A.G. Scientific Inc.; settings: ref A.G. Scientific Inc.; read-out: dissociation constant for calcium ions; cited from earlier work
[6] = Critical micelle concentration by dynamic light scattering; type: physicochemical
Description: tested, PIP2-F was free from micelle formation at concentrations of 0.5 µM or below, whereas […]
Methods: The critical micelle concentrations of PIP2 and 1-(1-octadecanoyl-fluorescein-2R-octadecanoylphosphatidyl)inositol-4,5-bisphosphate (Cayman Chemical, abbreviated as PIP2-F) were determined by dynamic light scattering (Huang et al., 2011). Fifty microliter samples were prepared by serial dilution of PIP2 or PIP2-F into a low salt buffer (2 mM Tris-HCl, pH 7.4), or the same buffer supplemented with 100 mM KCl, 1 mM MgCl2, and/or 1 mM CaCl2. After incubation for 30 min, the samples were centrifuged at 15,000 x g for 10 min, transferred into a 384-well clear bottom plate, and light scattering was measured using a Wyatt Dynapro plate reader at room temperature. The concentrations of PIP2-F were subsequently determined by light absorbance at 494 nm with a Nanodrop spectrophotometer. […]
Huang, W., Jiang, D., Wang, X., Wang, K., Sims, C. E., Allbritton, N. L. and Zhang, Q.

[7] = 0.5 μM ATP-N, 5 μM gelsolin, sigmoidal fitting

T1 sequence (P06396 28-782): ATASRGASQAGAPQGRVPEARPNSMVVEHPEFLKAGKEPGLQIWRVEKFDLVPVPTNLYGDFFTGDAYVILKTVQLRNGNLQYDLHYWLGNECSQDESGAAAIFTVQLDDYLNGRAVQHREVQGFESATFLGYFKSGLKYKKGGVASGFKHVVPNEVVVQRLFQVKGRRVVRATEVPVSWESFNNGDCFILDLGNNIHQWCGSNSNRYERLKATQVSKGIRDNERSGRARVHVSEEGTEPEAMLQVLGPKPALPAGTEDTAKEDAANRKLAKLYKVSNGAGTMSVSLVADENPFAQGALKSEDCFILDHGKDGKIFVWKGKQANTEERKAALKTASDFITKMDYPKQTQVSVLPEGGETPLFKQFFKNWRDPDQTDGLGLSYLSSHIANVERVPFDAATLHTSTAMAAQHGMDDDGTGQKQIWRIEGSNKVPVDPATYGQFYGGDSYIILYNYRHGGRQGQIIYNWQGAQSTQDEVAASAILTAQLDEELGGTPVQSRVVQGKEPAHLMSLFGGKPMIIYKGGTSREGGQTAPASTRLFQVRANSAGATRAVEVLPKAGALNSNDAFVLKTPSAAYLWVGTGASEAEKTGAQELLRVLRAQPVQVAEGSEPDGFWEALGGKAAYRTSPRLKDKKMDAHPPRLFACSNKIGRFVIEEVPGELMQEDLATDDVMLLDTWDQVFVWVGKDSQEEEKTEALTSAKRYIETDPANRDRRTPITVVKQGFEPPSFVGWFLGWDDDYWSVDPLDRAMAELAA

Nc1ncnc2c1ncn2[C@@H]1O[C@H](COP(=O)(O)OP(=O)(O)O)[C@@H](O)[C@H]1O [ADP]
association with gelsolin (gelsolin [1]): no significant association

Nc1nc2c(ncn2[C@@H]2O[C@H](COP(=O)(O)OP(=O)(O)O)[C@@H](O)[C@H]2O)c(=O)[nH]1 [GDP]
association with gelsolin (gelsolin [1]): no significant association

Nc1nc2c(ncn2[C@@H]2O[C@H](COP(=O)(O)OP(=O)(O)OP(=O)(O)O)[C@@H](O)[C@H]2O)c(=O)[nH]1 [GTP]
Kd (gelsolin [1]; read-out: dissociation constant for gelsolin): 1.8 µM

[Ca+2] [calcium]
inflection point (pCa) of ATP-N anisotropy decrease (gelsolin [2]; [7]): 5.2 | IC50 (gelsolin [2]; 0.5 μM ATP-N, 5 μM gelsolin, read-out: calcium concentration at which 50% of ATP-N remains bound to gelsolin): 6.3 ± 0.2 µM | half-maximum value of calcium for precipitation of ATP-N [3]: 70.4 ± 0.7 µM

[Mg+2] [magnesium]
inflection point (pMg) of ATP-N anisotropy decrease (gelsolin [2]; [7]): 2.3 | IC50 (gelsolin [2]; 0.5 μM ATP-N, 5 μM gelsolin, read-out: magnesium concentration at which 50% of ATP-N remains bound to gelsolin): 5000 ± 1100 µM | effect on the fluorescence emission of ATP-N ([3]; absence or presence of 10 μM calcium): no effect | magnesium concentration above which the ATP effect on gelsolin/PIP2-F is diminished (gelsolin [4]; 0.5 mM ATP, 0.5 μM PIP2-F, 5 μM gelsolin): above 7 mM

FURA-2FF
Kd [5]: 25 µM

N^6-(6-amino)hexyl-ATP-ATTO-532 [ATP-N]
anisotropy of ATP-N at saturation (gelsolin [2]; 0.5 μM ATP-N, 5 μM gelsolin): 0.15 ± 0.006 | Kd (gelsolin [2]; 0.5 μM ATP-N, absence of divalent cations): 0.71 ± 0.52 µM | Kd (gelsolin [2]; 50 mM KCl, 1 mM MgCl2 (pMg 3), titration with gelsolin): 1.8 µM | Kd (gelsolin [2]; 100 mM KCl): 1.27 ± 0.6 µM | Kd (gelsolin [2]; 100 mM KCl, 1 mM MgCl2 (pMg 3)): 1.58 ± 0.85 µM | Kd (gelsolin [2]; 120 mM KCl): 1.42 ± 0.27 µM | Kd (gelsolin [2]; 120 mM KCl, 1 mM MgCl2 (pMg 3)): 2.34 ± 0.73 µM | Kd (gelsolin [2]; actin polymerization conditions, above 100 μM calcium): 8.05 ± 1.32 µM

PtdIns-(4,5)-P2-fluorescein [PIP2-F]
steady-state anisotropy of PIP2-F with gelsolin (gelsolin [4]; 0.5 μM PIP2-F, 5 μM gelsolin, no ATP, 1 mM Ca2+ (pCa 3)): 0.04 | steady-state anisotropy of PIP2-F with gelsolin (gelsolin [4]; 0.5 μM PIP2-F, 5 μM gelsolin, no ATP, ≈0–10 μM Ca2+ (pCa 15–5)): approximately 0.12 | Kd (gelsolin [4]; 0.5 μM PIP2-F, absence of divalent cations, read-out: Kd of PIP2-F for gelsolin): 0.84 ± 0.39 µM | Kd (gelsolin [4]; 100 mM KCl, read-out: Kd of PIP2-F for gelsolin): 1.35 ± 0.7 µM | Kd (gelsolin [4]; 120 mM KCl, read-out: Kd of PIP2-F for gelsolin): 3.12 ± 1.7 µM | Kd (gelsolin [4]; actin polymerization conditions (10 μM Ca2+, 1 mM Mg2+, 50 mM K+), absence of ATP, read-out: Kd of PIP2-F for gelsolin): 2.7 ± 0.2 µM | Kd (gelsolin [4]; no ATP, 1–10 μM calcium (pCa 6–5), absence of KCl and magnesium, read-out: Kd of PIP2-F/gelsolin interaction): < 1 µM | Kd (gelsolin [4]; no ATP, entire calcium range, absence of KCl and magnesium, read-out: Kd of PIP2-F/gelsolin interaction): < 20 µM | CMC of PIP2-F ([6]; 1 mM CaCl2 with 100 mM KCl or 100 mM KCl and 1 mM MgCl2): ~ 0.5 μM | CMC of PIP2-F ([6]; absence of calcium): ~ 10 μM | micelle formation ([6]; at or below 0.5 μM, buffer conditions tested): failed to form micelles
